Among the data in the METLIN SMRT retention time set (Domingo-Almenara et al. 2019) are RP-LC retention time values, retold here.

A short description of the data set: gradient 5% acetonitrile 3 min, to 50% in 2 min, to 85% in 15 min, held 3 min, 100 µL/min. The note with it: column: Zorbax Extend-C18 2.1 x 50 mm; eluents: water / acetonitrile, 0.1% formic acid. The gist of the method:
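Using water and acetonitrile that each contained 0.1% formic acid, mixtures of ~100 pure standards were separated at 100 μL/min on a Zorbax Extend-C18 column (2.1 × 50 mm, 1.8 μm). The HPLC fed a quadrupole time-of-flight mass spectrometer working in positive and negative ionization mode, with dead and dwell volumes of 40 μL and 900 μL. Data were acquired over 3 months. Retention time was read from computationally picked adduct peaks after manual inspection of each.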
`COc1cccc(CNC(=O)C2CCN(S(=O)(=O)c3cn(C)cn3)CC2)c1`: the RP-LC retention time is 656 s.
The compound `Cc1ccc(-c2ccnc(SCC(=O)NCc3ccccc3)n2)cc1C` gave an RP-LC retention time of 944 s.
In turn, `O=C(NCc1ccc(F)cc1F)C1=C2CCCN2c2ccc(F)cc2S1(=O)=O` registered an RP-LC retention time of 895 s.
Then `O=C(C1=CN(c2ccc(F)cc2)c2ccccc2S1(=O)=O)N1CCOCC1`, with 741 s.
For `O=C(NCCCn1nc(-c2ccco2)ccc1=O)c1cc(Cl)ccc1Cl` the value was 737 s; for `COc1ccc(NC(=O)CCCSc2ccc(F)cc2)c([N+](=O)[O-])c1`, 983 s.
On to `COc1nc2ccccc2nc1N1CCCC(C(=O)Nc2ccc(F)cc2F)C1` (stereo not drawn), for which the RP-LC retention time came out at 1170 s.
Then `CCSc1nnc(-c2nn(C)c3c2CN(S(=O)(=O)c2ccc(Cl)cc2)CC3)n1CC`, with 983 s.
The compound `Cc1ccc(NC(=O)Cc2c(C)nn(-c3nc(-c4ccc(F)cc4)cs3)c2C)c(C)c1` yielded an RP-LC retention time of 1210 s.
For `COc1cccc(NS(=O)(=O)c2cc(-c3[nH]ncc3C(=O)N(C)C)oc2C)c1` the value was 668 s.
For `COC(=O)c1cc2c(=O)n(CCc3cccs3)ccc2nc1C` the value was 838 s.
Consider `CCn1cc(C)c(C(=O)O)c1CC(=O)N1CCCc2ccccc21`, for which the RP-LC retention time was determined as 811 s.
For `COc1ccc(Cn2nccc2NC(=O)c2cc(=O)c3ccc(Br)cc3o2)cc1` the value was 870 s.
For `Cc1ccc(-c2csc(-n3nc(C)c(CC(=O)Nc4c(C)cccc4C)c3C)n2)cc1` the value was 1190 s; for `O=C(c1ccccc1)N1CCc2ccc(NS(=O)(=O)c3cccs3)cc2C1`, 759 s; for `O=C(N[C@@H]1CN(Cc2ccccc2)C[C@H]1CO)C1(c2ccccc2)CC1`, 652 s.
For `COc1ccc(N2CCN(c3cc(SCC(=O)Nc4cc(OC)ccc4OC)ncn3)CC2)cc1` the value was 1030 s; for `Cc1ccc(N2CC(c3noc(C4CCC4)n3)CC2=O)cc1` (stereo not drawn), 914 s.
Turning to `CN1C(=O)c2cc(C(=O)NCCc3c[nH]c4ccccc34)nn2CC1(C)C(=O)NC1CCCCC1` (stereo not drawn), the RP-LC retention time stood at 806 s.
Then `Cc1ccc(-n2nc(CO)c(C(=O)NCc3ccc4c(c3)OCO4)n2)cc1`, with 940 s; and `Cc1cc2nc(C)c(=O)n(CCC(=O)NCCc3c[nH]c4ccc(Cl)cc34)c2cc1C`, with 902 s.
For `Clc1ccc(Nc2c(-c3ccccc3Cl)nc3ccc(Cl)cn23)cc1`, the RP-LC retention time came to 946 s.
Then `CCc1noc(NC(C)=O)c1-c1ccc(C)c(S(=O)(=O)NCc2ccc3c(c2)OCO3)c1`, with 814 s.
Then `Cc1ccc(NC(=O)Cn2nc3c(Oc4cccc(F)c4)nccn3c2=O)c(F)c1`, with 878 s; and `Cc1ccc(C)c(-c2nc(-c3cccc(-c4ccn[nH]4)c3)no2)c1`, with 1190 s.
Then `Cc1nnc2c(=O)n(CC(=O)NCC3CC3)c3cccnc3n12`, with 610 s.
`O=C(c1csc(N2CCN(c3ccc(Cl)cc3)CC2)n1)N1CCCCC1` showed an RP-LC retention time of 1130 s.
Compound `O=C(O)c1nnn(-c2ccc3c(c2)OCCO3)c1-c1cccnc1` came in with an RP-LC retention time of 568 s.
Then `CC(=O)N1CCc2cc(-c3ccc(C(=O)NCCCN4CCCC4=O)cc3)ccc21`, with 672 s; and `O=C(CSc1cn(CC(=O)N2CCCCCC2)c2ccccc12)NCC1CCCO1` (stereo not drawn), with 799 s.
For `COc1ccccc1-c1noc(Cn2c(=O)n(-c3ccc(Cl)cc3)c(=O)c3sccc32)n1` the value was 950 s; for `CC(CCc1ccccc1)NC(=O)Cn1nc2n(c1=O)CCCC2` (stereo not drawn), 716 s.
Consider `Cn1nccc1-c1cccc(-c2noc(-c3ccnc(Cl)c3)n2)c1`, for which the RP-LC retention time was determined as 1050 s.
Then `COc1ccc2oc(-c3ccccc3)c(C(=O)Nc3nccs3)c2c1`, with 931 s; and `COc1ccc(OCc2noc(CNC(=O)c3ccccc3Cl)n2)cc1`, with 793 s.
For `Cc1ncc(-c2nc(-c3ccccc3)cs2)c(=O)n1CC(=O)N1CCCC1`, the RP-LC retention time came to 827 s.
Consider `Cc1cc(C)c2c(N3CCOCC3)nc(C(=O)N3CCN(c4ccccc4)CC3)nc2n1`, for which the RP-LC retention time came out at 653 s.
For `COCCOCc1nc(C2CCCN2C(=O)c2ccoc2)no1` (stereo not drawn) the value was 656 s.
For `CN1c2cc(C(=O)N3CCN(c4ccc(F)cc4)CC3)ccc2C(=O)N2CCCCC21` (stereo not drawn) the value was 840 s; for `Cn1cc(CN2C[C@@H](CO)[C@H](NC(=O)C3CCC3)C2)c2ccccc21`, 615 s; for `O=C(NCCc1cccs1)C1CCN(C(=O)c2ncn3c2COC(c2ccc(F)cc2)C3)CC1` (stereo not drawn), 774 s.
Then `CCc1ccc(-c2cc3c(=O)n(Cc4noc(CN5CCC(C)CC5)n4)ccn3n2)cc1`, with 757 s; and `O=C(N[C@@H]1CN(C(=O)C2CC2)CC[C@@H]1CO)C1CC1`, with 576 s; and `O=C(CN1C(=O)COc2ccc(C(=O)N3CCc4ccccc4C3)cc21)N1CCCC1`, with 763 s.
`Cc1ccccc1NC(=O)N1CCC(c2nc(C(=O)N3CCOCC3)c(C)o2)CC1` gave an RP-LC retention time of 673 s.
Then `CCn1ccc(C(=O)N2CC[C@H]3N(CCOC)S(=O)(=O)CC[C@]3(C(=O)N3CCOCC3)C2)n1`, with 622 s.
For the compound `CCOC(=O)c1cc(S(=O)(=O)N2CCN(c3ccccn3)CC2)[nH]n1`, the RP-LC retention time came out at 598 s.
For `CCC(=O)N1CCc2cc(N3CC(C(=O)Nc4ccc(OC)c(Cl)c4)CC3=O)ccc21` (stereo not drawn) the value was 779 s; for `O=C(O)CCCC(=O)N1C[C@H]2C[C@@H](C1)c1cccc(=O)n1C2`, 564 s.
Then `COCCNC(=O)N1CCCn2nc(-c3ccc(OC)cc3)cc2C1`, with 660 s; and `CSc1cccc(NC(=O)Cn2nc(C(=O)N3CCOCC3)cc2C2CC2)c1`, with 742 s.
Then `COc1cccc(Cn2c(=O)c3ccnn3c3ccc(C(=O)O)cc32)c1`, with 785 s; and `O=C(NCCc1ccccc1)NC1CCN(C(=O)N2C[C@H]3C[C@H](C2)[C@H]2CCCC(=O)N2C3)CC1`, with 658 s; and `CCOCC(=O)N1CC(c2nc(-c3ccccc3)no2)C2(CCOCC2)C1` (stereo not drawn), with 766 s.
`CC(C)CNC(=O)CCn1c(=O)c2ccccc2n2c(=O)n(Cc3ccc(F)cc3)nc12` yielded an RP-LC retention time of 870 s.
Then `Cc1nnc2c(=O)n(CC(=O)NCc3ccc(F)cc3Cl)c3cccnc3n12`, with 710 s.
Take `Cc1ccc2cc(CCC(=O)NCCc3cccnc3)c(=O)[nH]c2c1`: the RP-LC retention time was 586 s.
For the compound `COc1ccc(-c2cc(N3CCC(NC(=O)c4ccc(Cl)cc4)C3)n[nH]2)cc1` (stereo not drawn), the RP-LC retention time turned out to be 739 s.
Then `NC(=O)C(c1ccccc1)(c1ccccc1)[C@@H]1CCN(CCc2ccc3c(c2)CCO3)C1`, with 740 s.
Then `O=C(Nc1nc2c(s1)CN(Cc1ccccc1)CC2)C1CCCN1S(=O)(=O)c1cccs1` (stereo not drawn), with 654 s; and `CCS(=O)(=O)N1CCC[C@H](n2c(=O)n(C)c3cccnc32)C1`, with 698 s.
Then `CC(C)(C)c1ccc2c(c1)N(S(=O)(=O)c1ccccc1)CC(C(=O)NC1CC1)O2` (stereo not drawn), with 1080 s.
Turning to `COc1cccc(S(=O)(=O)N2CCCN(S(=O)(=O)c3ccccc3)CCC(=O)NCC2)c1`, the RP-LC retention time stood at 805 s.
Then `COc1ccc(C(=O)NCCc2sc(-c3cccc(F)c3)nc2C)c(OC)c1`, with 921 s; and `Cn1cc(C(=O)Nc2ccc(N3CCOCC3)cc2)c2cccnc21`, with 658 s.
For `CCCn1cc(CCNC(=O)C2CCCCC2)c2cccnc21` the value was 772 s.
Then `Cc1ccc(-n2ccc(=O)c(-c3nc(-c4cccc(Br)c4)no3)n2)cc1`, with 1030 s; and `O=C(Nc1ccccc1)c1cccc(N2CC(C(=O)NC3CCCCCC3)CC2=O)c1` (stereo not drawn), with 862 s.
In the case of `COc1ccccc1N1CCN(C(=O)Cn2ccc3ccc(-c4nnc(C)o4)cc32)CC1`, the RP-LC retention time came to 786 s.
Then `O=C(Nc1nc(-c2ccccc2)cs1)NC1CCCCC1`, with 991 s; and `Cc1ccc2nsnc2c1S(=O)(=O)NCCc1c(C)[nH]c2ccccc12`, with 948 s.
Then `CC(C)CCNC(=O)Cn1c(=O)c2cnc(-c3ccc(Cl)cc3)nc2n(C)c1=O`, with 740 s; and `COC(=O)c1ccc(C2CC(=O)Nc3cc(OC)cc(OC)c32)cc1` (stereo not drawn), with 784 s.
For `Cc1ccc(-n2ccc(=O)c(-c3nc(-c4ccc(Cl)cc4)no3)n2)cc1` the value was 1030 s.
Regarding `CN(Cc1nc2ccccc2[nH]1)C(=O)c1ccco1`, the RP-LC retention time came to 537 s.
Then `Cc1cnc(C(=O)N2CCCCCCN(C)C(=O)[C@@H]3CCC[C@@H]32)cn1`, with 716 s; and `CCN(CC)c1nc2cc(C(=O)OC)ccc2c(=O)n1-c1ccc(C)cc1`, with 1210 s; and `COc1ccc(C2C(C(=O)O)c3ccccc3C(=O)N2C)cc1` (stereo not drawn), with 688 s.
